The source of these data is US10232023B2, “Methods for treatment of and prophylaxis against inflammatory disorders” (THE UNIVERSITY OF UTAH RESEARCH FOUNDATION, priority 2013, dated 2019).

“Also recorded” adds a separate entry of the source.

In assay [1] the test system is human PMNs (killing of a pathogenic strain of E. coli). Description: Bacterial killing of E. coli by human PMNs. The following applies: LPS-stimulated (100 ng/mL) PMNs; pretreatment 1 nM. The format is cell-based. On the procedure: Total, phagocytotic, and NET-mediated extracellular bacterial killing of a pathogenic strain of E. coli by human PMNs±LPS stimulation (100 ng/mL) was assessed, and the results are summarized in FIG. 9. PMNs were also pretreated with CRISPP (1 nM), or a scrambled control peptide control (1 nM). Phagocytotic killing was inhibited with cytochalasin B and D pretreatment (10 μM). NET-mediated killing was inhibited using DNase treatment to dismantle NETs prior to addition of the bacteria.
Bacterial killing efficiency of primary human PMNs was determined as previously described in Yost et al., Blood, 2009, 113: 6419-6427. PMNs were incubated for 30 minutes at 37° C. in 5% CO2/95% air alone or with the phagocytosis inhibitors cytochalasin B and D (10 μM). The leukocytes were then stimulated with LPS (100 ng/mL), placed in poly-L-lysine-coated wells of a 24-well tissue culture plate, and incubated at 37° C. for 1 hour to induce cellular activation and formation of NETs. To inhibit NET-mediated bacterial killing, we incubated selected wells with DNase (40 U/mL) for 15 minutes prior to addition of bacteria. E. coli (1 cfu/100 PMN) were added to the PMNs, followed by continued incubation for 2 hours. The PMNs were then permeabilized with 0.1% Triton-X 100 for 10 minutes and each well was scraped to free all cells. Serial dilutions were performed and bacterial cultures were grown on 5% sheep blood agar plates (HARDY DIAGNOSTICS). After a 24-hour incubation, bacterial counts were determined. Total, phagocytotic, and fractional NET-mediated bacterial killing were determined as described above.

In assay [2] the test system is C57BL6 mice, intraperitoneal injection of LPS. Kind of assay: Survival after intraperitoneal LPS. The format is in vivo, mouse. The following applies: LPS 20 mg/kg IP; 10 mcg/kg/dose IP, 1 hour prior and 6 hours after; vs LPS+scrambled peptide, p=0.02. On the procedure: FIG. 10A is a graph tracking survival of C57BL6 mice in various treatment arms following intraperitoneal injection of LPS (20 mg/kg). CRISPP-treated mice (10 mcg/kg/dose) received 2 doses intraperitoneally; one given 1 hour prior to infection and one dose given 6 hours after infection. The same dose, delivery route, and schedule were followed for the scrambled peptide control mice. Six mice were assessed in both groups.
Survival of outbred Swiss mice was tracked in various treatment arms following intraperitoneal injection of either LPS (20 mg/kg) or E. coli (4×10^7 bacteria), as shown in FIGS. 10A and 10B. […] Six mice were assessed in both groups: LPS+CRISPP and LPS+scrambled control peptide. […] Ten mice were assessed in each group: no treatment, E. coli+CRISPP, and E. coli+scrambled control peptide. […] Referring to FIG. 11, CRISPP was also evaluated in a murine model of polymicrobial infection caused by cecal ligation and puncture (CL/P). […] Ten mice were assessed in each of the CL/P groups. […]
Animals were treated with CRISPP (10 mg/kg), nNIF (10 mg/kg), or SCR (10 mg/kg) by i.p. injection 1 hour prior to and 6 hours after infection (E. coli, 4.5×10^7 cfu/mouse, i.p. injection) or stimulation (LPS, 25 mg/kg, i.p. injection). […] Survival was assessed over 6 days at 6 hour to 12 hour intervals.

Assay [3] has as its system outbred Swiss mice, intraperitoneal injection of E. coli. Description: Survival after intraperitoneal E. coli. The format is in vivo, mouse. On the procedure:
FIG. 10B is a graph tracking survival of outbred Swiss mice in various treatment arms following intraperitoneal injection of E. coli (4×10^7 bacteria). As in FIG. […] The same dose, delivery route, and schedule were followed for the scrambled peptide control mice. Here, 10 mice were assessed in each group: no treatment, E. coli plus CRISPP, and E. coli plus scrambled peptide.
Survival of outbred Swiss mice was tracked in various treatment arms following intraperitoneal injection of either LPS (20 mg/kg) or E. coli (4×10^7 bacteria), as shown in FIGS. 10A and 10B. […] The same dose, delivery route, and schedule were followed for the scrambled control peptide control mice. Six mice were assessed in both groups: LPS+CRISPP and LPS+scrambled control peptide. […] Ten mice were assessed in each group: no treatment, E. coli+CRISPP, and E. coli+scrambled control peptide. No antibiotics were given. No deaths occurred in the no treatment group. […] Referring to FIG. 11, CRISPP was also evaluated in a murine model of polymicrobial infection caused by cecal ligation and puncture (CL/P). CL/P was also performed without concomitant antibiotic treatment. Ten mice were assessed in each of the CL/P groups. […]
[…] Survival was assessed over 6 days at 6 hour to 12 hour intervals.

“Cancer-Associated SCM-Recognition, Immune Defense Suppression, and Serine Protease Protection Peptide [CRISPP, nNIF-related peptide (nNRP)]”: in assay [1], the “NET-mediated extracellular bacterial killing of E. coli” value was “significantly decreased”, the “Phagocytotic bacterial killing of E. coli” value is listed as “did not alter; also recorded: not different” and the “Total bacterial killing of E. coli” value is on record as “significantly decreased”. In addition, the Survival result in assay [2] is listed as “statistically greater”. In addition, the “Survival, post-infection treatment” value in assay [3] (CRISPP-Post/E. coli vs SCR-Post/E. coli, peptide 4 hours after infection) was “approached statistical significance”. The Survival result in assay [3] (E. coli 4×10^7 IP, 10 mcg/kg/dose IP, 1 hour prior and 6 hours after, vs E. coli+scrambled peptide, p<0.0001) is on record as “statistically greater”.
